Source: publication PMC8678981, “PET Imaging of VMAT2 with the Novel Radioligand [^18F]FE-DTBZ-d4 in Nonhuman Primates: Comparison with [^11C]DTBZ and [^18F]FE-DTBZ” (ACS Chemical Neuroscience, 2021)

Legend:
VMAT2 [1] = details: cited from earlier work
VMAT2 [2] = assay: PET quantification of VMAT2 binding (BPND, Logan noninvasive analysis, cerebellum reference); format: in vivo, cynomolgus monkey; details: for Binding potential (BPND) caudate / Binding potential (BPND) midbrain / Binding potential (BPND) putamen: Logan noninvasive analysis, cerebellum as reference region; for peak equilibrium: cynomolgus monkey brain, baseline PET
Excerpt: The outcome measure was the binding potential (BPND).

[3] = Radiometabolite analysis in monkey plasma by gradient radio-HPLC; format: in vivo, cynomolgus monkey; details: 90 min after injection
Procedure: Radiometabolite analysis was performed following a method reported elsewhere.[34] Venous blood samples (2 mL) were obtained from the monkey at different time points such as 2.5, 15, 30, 45, 60, 90, 120, 150, and 180 min after injection of [^18F]FE-DTBZ/[^18F]FE-DTBZ-d4. For [^11C]-DTBZ, venous blood samples (2 mL) were obtained at time points 2.5, 15, 30, 45, 60, and 90 min after injection. Collected blood was centrifuged at 2000g for 2 min to obtain the plasma (0.5 mL). The plasma was mixed with 1.4 times volume of acetonitrile followed by centrifugation at 2000g for 4 min. The extract was separated from the pellet and was diluted with water before injecting into the HPLC equipped with a reverse-phase μ-Bondapak HPLC column, (300 mm × 10 mm I.D). […] Peaks for radioactive compounds eluting from the column were integrated and their areas were expressed as a percentage of the sum of the areas of all detected radioactive compounds (decay-corrected to the time of injection on the HPLC). To calculate the recovery of radioactivity from the system, an aliquot (2 mL) of the eluate from the HPLC column was measured and divided by the amount of the total injected radioanalyte.

[4] = PET whole brain uptake and kinetics in cynomolgus monkeys (HRRT); details: whole brain peak, baseline PET
Procedure: Anesthesia was induced by intramuscular injection of ketamine hydrochloride (approximately 10 mg/kg, Ketaminol vet. Intervet) and maintained by the administration of a mixture of sevoflurane, oxygen, and medical air after endotracheal intubation. The head was immobilized using a fixation device.[32]
Three female cynomolgus monkeys (NHP1, NHP2, and NHP3) (weight of 5.8–6.95 kg) were studied in 10 different experimental days for a total of 12 PET experiments. All PET experiments were performed using a high-resolution research tomograph (HRRT) PET scanner (Siemens Molecular Imaging, Knoxville, TN). A 6 min transmission scan was performed every time before the injection of the radioligands using a single ^137Cs source. […]
All three monkeys underwent two PET measurements on the same day at once. […] Venous blood sampling was performed manually for the measurement of protein binding, blood, and plasma radioactivity and radiometabolite analysis. […]
The regions of interest (ROIs) were delineated manually on the MRI images of each NHP for putamen, caudate, midbrain, occipital cortex, and cerebellum. […] Quantification was performed using the Logan graphical analysis, and the cerebellum was used as a reference region. […]

VMAT2 [5] = details: rats; cited from earlier work
[6] = Plasma protein binding by ultrafiltration; format: in vitro ADME; details: cynomolgus, cynomolgus monkey, pH 7.4, NHP plasma, baseline, read-out: plasma free fraction (fP)
Procedure: Plasma protein binding of all three radioligands was measured in duplicate in baseline conditions. NHP blood plasma (500 μL) and a PBS solution (pH 7.4, KCl 0.2 mg, KH2PO4 0.2 mg, Na2HPO4 1.42 mg, NaCl 8 mg in 1 mL) were mixed with the respective radioligand (50 μL, approx. 20 MBq in PBS). The plasma mixture was incubated for 10 min at room temperature and a small portion (20 μL) from each incubation mixture was measured in a well counter. A portion (200 μL) from all individual incubation mixtures was pipetted out into ultrafiltration tubes (Millipore Centrifree YM-30) and centrifuged at 3000 rpm for 15 min. Samples (20 μL) from each filtrate were counted in a well counter. The following formula was used to calculate the protein-bound fraction. [drawing 1] where Cpla (total) is the radioactivity concentration of the incubation mixture in plasma, CPBS (total) is the radioactivity concentration of the incubation mixture in PBS, and Cpla (filtrate) and […] the radioactivity concentrations from filtrate samples.

[7] = cited from earlier work
VMAT2 [8] = assay: Pretreatment and displacement PET with tetrabenazine using [^18F]FE-DTBZ-d4; format: in vivo, cynomolgus monkey; details: tetrabenazine 2 mg/kg
Procedure: In NHP1, one PET measurement was performed after pretreatment with tetrabenazine (2 mg/kg), which was administered 15 min prior to the administration of [^18F]FE-DTBZ-d4. In NHP2, two displacement experiments were performed with the administration of tetrabenazine (2 mg/kg) 25 min after the injection of [^18F]FE-DTBZ-d4.
The regions of interest (ROIs) were delineated manually on the MRI images of each NHP for putamen, caudate, midbrain, occipital cortex, and cerebellum. The MRI of all of the individual NHPs was coregistered to summed PET images of the whole PET measurement. The time–activity curves of NHP brain regions were generated from dynamic PET data with the application of the coregistration parameters to ROIs. Quantification was performed using the Logan graphical analysis, and the cerebellum was used as a reference region. The outcome measure was the binding potential (BPND).

| peak equilibrium (VMAT2 [2]) [min] | percent of unchanged radioligand in plasma [3] [%] | brain uptake (SUV) [4] | fraction unbound at 10 min, 36 MBq/mL [6] | uptake of [^18F]FE-DTBZ-d4 in caudate, putamen, and midbrain in displacement experiment (VMAT2 [8]; 25 min after radioligand injection) | SMILES | better binding affinity over the (−)-enantiomer (VMAT2 [1]) [fold] | Binding potential (BPND) caudate (VMAT2 [2]) | Binding potential (BPND) midbrain (VMAT2 [2]) | Binding potential (BPND) putamen (VMAT2 [2]) | striatum-to-cerebellum ratio (VMAT2 [5]) | in vivo metabolism ([7]; large piglet model) | bone uptake ([7]; PET/CT in pigs, compared with [^18F]FE-(+)-DTBZ) | uptake of [^18F]FE-DTBZ-d4 in caudate, putamen, and midbrain after pretreatment (VMAT2 [8]; 15 min prior to radioligand injection) |
| --- | --- | --- | --- | --- | --- | --- | --- | --- | --- | --- | --- | --- | --- |
| – | – | – | – | – | COc1cc2c(cc1OC)[C@H]1C[C@@H](O)[C@H](CC(C)C)CN1CC2 (single isomer, unassigned) [(+)-enantiomer, dihydrotetrabenazine] | 1000 | – | – | – | – | – | – | – |
| > 60 | 10 ± 4 | 3.43 ± 0.54 | 0.56 | – | COc1cc2c(cc1OCC[18F])CCN1C[C@@H](CC(C)C)[C@H](O)C[C@H]21 [[^18F]FE-DTBZ, ^18F-fluoroethyl-(+)-dihydrotetrabenazine] | – | 3.8 ± 0.5 | 1.1 ± 0.1 | 4.7 ± 0.3 | relatively poor | metabolized extensively by in vivo defluorination | – | – |
| 40 | 30 ± 17 | 4.28 ± 1.01 | 0.52 ± 0.01 | – | [2H]C([2H])([18F])C([2H])([2H])Oc1cc2c(cc1OC)[C@H]1C[C@@H](O)[C@H](CC(C)C)CN1CC2 [[^18F]FE-DTBZ-d4] | – | 4.4 ± 1.1 | 1.4 ± 0.4 | 5.5 ± 1.4 | – | – | lower bone uptake | – |
| – | – | – | – | clear reduction | COc1cc2c(cc1OC)C1CC(=O)C(CC(C)C)CN1CC2 (centres unmarked) [tetrabenazine] | – | – | – | – | – | – | – | decreased almost to the level of the cerebellum and occipital cortex |
